Test results from publication PMC5999544 (Bioorganic & medicinal chemistry letters, 2017).
“Also recorded” adds a separate entry of the source.

Experiments:
[1] = target: T1, ASK1 (Homo sapiens, UniProt Q99683); experiment: ASK1 Alphascreen biochemical assay
T1 sequence (Q99683 1-1374): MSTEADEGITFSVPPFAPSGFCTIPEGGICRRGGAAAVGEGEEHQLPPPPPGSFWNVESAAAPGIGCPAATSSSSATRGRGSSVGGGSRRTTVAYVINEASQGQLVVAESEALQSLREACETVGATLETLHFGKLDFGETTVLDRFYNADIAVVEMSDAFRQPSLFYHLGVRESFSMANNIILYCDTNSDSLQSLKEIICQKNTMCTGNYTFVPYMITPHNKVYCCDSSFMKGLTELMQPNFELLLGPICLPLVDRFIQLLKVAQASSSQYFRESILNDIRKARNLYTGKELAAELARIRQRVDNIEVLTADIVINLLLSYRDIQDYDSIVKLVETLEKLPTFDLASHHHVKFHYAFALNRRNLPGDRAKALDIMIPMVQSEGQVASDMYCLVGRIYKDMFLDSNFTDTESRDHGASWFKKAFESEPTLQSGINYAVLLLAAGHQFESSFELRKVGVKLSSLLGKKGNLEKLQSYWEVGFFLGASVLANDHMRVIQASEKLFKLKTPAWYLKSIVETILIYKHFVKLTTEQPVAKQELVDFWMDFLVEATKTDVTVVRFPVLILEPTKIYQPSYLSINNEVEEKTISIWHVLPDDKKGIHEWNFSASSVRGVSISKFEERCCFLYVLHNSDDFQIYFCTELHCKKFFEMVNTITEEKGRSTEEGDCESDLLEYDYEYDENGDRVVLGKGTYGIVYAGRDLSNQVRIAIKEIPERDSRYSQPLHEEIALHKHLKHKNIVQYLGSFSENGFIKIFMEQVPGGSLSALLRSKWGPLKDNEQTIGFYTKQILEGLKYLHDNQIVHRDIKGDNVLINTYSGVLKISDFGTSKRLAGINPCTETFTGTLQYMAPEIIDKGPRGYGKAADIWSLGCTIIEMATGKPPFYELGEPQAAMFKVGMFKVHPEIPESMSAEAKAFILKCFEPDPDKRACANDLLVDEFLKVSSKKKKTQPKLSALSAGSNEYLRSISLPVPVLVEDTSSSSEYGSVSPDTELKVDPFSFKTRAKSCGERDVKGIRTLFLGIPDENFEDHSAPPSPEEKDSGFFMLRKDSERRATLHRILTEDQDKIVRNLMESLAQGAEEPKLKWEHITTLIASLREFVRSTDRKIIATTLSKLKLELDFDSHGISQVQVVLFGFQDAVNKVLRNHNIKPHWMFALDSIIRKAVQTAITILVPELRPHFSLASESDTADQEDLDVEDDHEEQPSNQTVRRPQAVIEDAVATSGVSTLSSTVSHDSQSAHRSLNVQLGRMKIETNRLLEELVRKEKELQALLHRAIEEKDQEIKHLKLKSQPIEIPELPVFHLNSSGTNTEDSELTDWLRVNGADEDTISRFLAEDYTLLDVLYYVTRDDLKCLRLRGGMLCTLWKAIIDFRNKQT

[2] = target: CYP3A4 (Homo sapiens, UniProt P08684); experiment: Cytochrome P450 inhibition assay 3A4; type: in vitro ADME
[3] = target: CYP2C9 (Homo sapiens, UniProt P11712); experiment: Cytochrome P450 inhibition assay 2C9; type: in vitro ADME
[4] = test system: INS-1e cell line; experiment: TNFα-induced phosphorylation of endogenous MKK6 at Ser207, immunoblot; type: cell-based; conditions: rat INS-1e cells
[5] = target: T1, ASK1; experiment: Enzyme kinetic study, Lineweaver-Burk plot at six ATP concentrations; type: biochemical; conditions: with or without compound

Chain of CYP2C9 (P11712 whole entry): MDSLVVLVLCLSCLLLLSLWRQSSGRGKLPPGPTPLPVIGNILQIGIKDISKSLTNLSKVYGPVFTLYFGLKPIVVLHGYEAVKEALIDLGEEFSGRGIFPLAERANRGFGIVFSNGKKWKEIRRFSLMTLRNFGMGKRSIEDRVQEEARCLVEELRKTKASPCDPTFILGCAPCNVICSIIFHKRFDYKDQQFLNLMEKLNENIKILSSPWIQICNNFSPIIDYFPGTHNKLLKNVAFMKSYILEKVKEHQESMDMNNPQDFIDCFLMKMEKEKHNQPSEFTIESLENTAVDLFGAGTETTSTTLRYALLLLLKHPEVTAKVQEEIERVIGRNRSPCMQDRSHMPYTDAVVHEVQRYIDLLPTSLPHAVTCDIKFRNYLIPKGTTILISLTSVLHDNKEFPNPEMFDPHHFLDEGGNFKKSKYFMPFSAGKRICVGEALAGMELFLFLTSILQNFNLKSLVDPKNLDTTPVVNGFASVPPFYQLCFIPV
Chain of CYP3A4 (P08684 whole entry): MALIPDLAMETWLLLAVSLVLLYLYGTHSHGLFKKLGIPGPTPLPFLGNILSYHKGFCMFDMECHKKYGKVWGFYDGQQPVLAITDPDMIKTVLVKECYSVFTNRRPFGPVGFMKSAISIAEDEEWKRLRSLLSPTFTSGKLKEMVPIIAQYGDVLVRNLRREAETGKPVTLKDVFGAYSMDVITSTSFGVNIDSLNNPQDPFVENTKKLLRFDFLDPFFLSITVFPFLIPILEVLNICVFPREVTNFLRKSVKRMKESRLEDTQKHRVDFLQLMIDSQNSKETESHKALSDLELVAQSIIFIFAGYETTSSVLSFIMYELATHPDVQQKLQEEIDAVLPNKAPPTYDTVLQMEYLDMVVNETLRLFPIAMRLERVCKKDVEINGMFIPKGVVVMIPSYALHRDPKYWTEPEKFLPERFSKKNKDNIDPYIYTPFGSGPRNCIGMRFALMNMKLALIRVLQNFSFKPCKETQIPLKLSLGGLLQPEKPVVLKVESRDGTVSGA

| inhibition at 10 µM [2] [%] | inhibition at 10 µM [3] [%] | SMILES | ASK1 inhibitory activity (in words) [1] | also measured |
| --- | --- | --- | --- | --- |
| – | – | CN(C)c1cccc(Nc2nccc(NCCOc3ccccc3)n2)c1 [Compound 3] | – | fold less active as an ASK1 inhibitor compared to 1 ([1]; 3 versus 1): approximately 250 fold |
| – | – | Cn1cc(-c2ccc3nc(Nc4cccc(N(C(=O)C(C)(C)C)c5ccccc5)c4)ncc3c2)cn1 [Compound 29] | did not show improvement in ASK1 activity | – |
| < 20 | < 20 | CC(=O)Nc1cccc(Nc2ncc3ccccc3n2)c1 [Compound 12] | submicromolar inhibitory activities against ASK1 | fold improvement in potency in comparison to quinazoline 9 ([1]; 12 versus 9): > 10 fold; TNFα-induced MKK6 ser207 phosphorylation [4]: protects against TNFα-induced MKK6^ser207 phosphorylation; also recorded: reduction of p-MKK6^ser207; mode of ASK1 inhibition [5]: ATP competitive |
| – | – | CC(C)(C)C(=O)N(c1ccccc1)c1cccc(Nc2ncc3cc(-c4cn[nH]c4)ccc3n2)c1 [Compound 28] | did not show improvement in ASK1 activity | – |
| > 85 | > 85 | CC(=O)Nc1cccc(Nc2ncc3cc(-c4cn[nH]c4)ccc3n2)c1 [Compound 23] | submicromolar inhibitory activities against ASK1 | – |
